{
  "source": "EPA's ToxValDB 9.5 (doi:10.2903/j.efsa.2013.3298)",
  "key": {"Colinus virginianus": {"test_system": "Colinus virginianus", "conditions": "for LD50: acute, oral, mortality"}, "Cyprinodon variegatus": {"test_system": "Cyprinodon variegatus", "conditions": "acute; duration: 96 hours; mortality"}, "Apis mellifera": {"test_system": "Apis mellifera", "conditions": "acute; duration: 48 hours; oral; unspecified; mortality"}, "Daphnia magna": {"test_system": "Daphnia magna", "conditions": "chronic/long-term; duration: 21 days; reproduction"}, "Pimephales promelas": {"test_system": "Pimephales promelas", "conditions": "chronic/long-term; duration: 35 days; body weight"}, "Canidae": {"test_system": "Canidae", "conditions": "oral, M/F, Dog Other, hematological"}, "Typhlodromus pyri": {"test_system": "Typhlodromus pyri", "assay": "LR50; higher = less toxic", "conditions": "chronic/long-term; duration: 14 days; mortality"}, "Aphidius rhopalosiphi": {"test_system": "Aphidius rhopalosiphi", "assay": "LR50; higher = less toxic", "conditions": "acute; duration: 14 days; mortality"}},
  "data": [
    {"smiles": "Cc1cc(C(F)(C(F)(F)F)C(F)(F)F)ccc1NC(=O)c1cccc(I)c1C(=O)NC(C)(C)CS(C)(=O)=O", "note": "[Flubendiamide]", "values": [
      {"measurement": "LC50", "setting": "Bibionidae; acute, duration: 48 hours, mortality", "result": 1.88, "unit": "µg/mL"},
      {"measurement": "NOEC", "setting": "Bibionidae; chronic/long-term, duration: 28 days, development", "result": 35, "unit": "µg/L"},
      {"measurement": "LD50", "setting": "Colinus virginianus; diet", "result": "> 1080", "unit": "mg/kg-day"},
      {"measurement": "LD50", "setting": "Colinus virginianus", "result": "> 2000", "unit": "mg/kg"},
      {"measurement": "NOEL", "setting": "Colinus virginianus; reproduction developmental, reproduction", "result": 10.2, "unit": "mg/kg-day"},
      {"measurement": "LC50", "setting": "Cyprinodon variegatus", "result": "> 0.0298", "unit": "µg/mL"},
      {"measurement": "LD50", "setting": "Apis mellifera", "result": "> 200", "unit": "µg/piece"},
      {"measurement": "LD50", "setting": "Rattus norvegicus; acute, oral, M/F, mortality", "result": "> 2000", "unit": "mg/kg"},
      {"measurement": "NOAEL", "setting": "Rattus norvegicus; chronic, M, hematological", "result": 1.7, "unit": "mg/kg-day"},
      {"measurement": "NOAEL", "setting": "Rattus norvegicus; developmental, development", "result": 10, "unit": "mg/kg-day"},
      {"measurement": "NOAEL", "setting": "Rattus norvegicus; reproduction developmental, F, reproduction", "result": 3.68, "unit": "mg/kg-day"},
      {"measurement": "NOEC", "setting": "Daphnia magna", "result": 0.4, "unit": "µg/L"},
      {"measurement": "NOEC", "setting": "Pimephales promelas", "result": 60.2, "unit": "µg/L"},
      {"measurement": "NOAEL", "setting": "Canidae; chronic, duration: 1 years", "result": 2.21, "unit": "mg/kg-day"},
      {"measurement": "NOAEL", "setting": "Canidae; subchronic, duration: 90 days", "result": 2.6, "unit": "mg/kg-day"},
      {"measurement": "NOEL", "setting": "Anas platyrhynchos; reproductive, reproduction", "result": 26, "unit": "mg/kg-day"},
      {"measurement": "LD50", "setting": "Anas platyrhynchos; short-term, oral, feed, mortality", "result": "> 1020", "unit": "mg/kg-day"},
      {"measurement": "LC50", "setting": "Tagia sp.; acute, duration: 14 days, mortality", "result": "> 1000", "unit": "mg/kg"},
      {"measurement": "NOEC", "setting": "Tagia sp.; chronic/long-term, duration: 56 days, reproduction", "result": 1000, "unit": "mg/kg"},
      {"measurement": "LR50", "setting": "Typhlodromus pyri", "result": "> 675", "unit": "g/ha"},
      {"measurement": "LR50", "setting": "Aphidius rhopalosiphi", "result": "> 675", "unit": "g/ha"}
    ]}
  ]
}
